Results as given in patent publication US12440571B2, “Immune agonists” (SHENZHEN UNIVERSITY, priority 2020, dated 2025).
Read-outs that look alike come from different tables or passages of the source.

How the values were obtained:
Type in all cases: cell-based
TLR7 = biological target: T1, TLR7 (Homo sapiens, UniProt Q9NYK1); experiment: Detection of TLR7 activation (HEK-Blue Detection), SEAP reporter; details: for EC50: HEK-Blue hTLR7 cells, 6-16 hrs, absorbance 650 nm
T1 construct: host or cells: HEK-Blue hTLR7 cells (HEK293-derived SEAP reporter line)
T1 sequence (Q9NYK1 27-1049): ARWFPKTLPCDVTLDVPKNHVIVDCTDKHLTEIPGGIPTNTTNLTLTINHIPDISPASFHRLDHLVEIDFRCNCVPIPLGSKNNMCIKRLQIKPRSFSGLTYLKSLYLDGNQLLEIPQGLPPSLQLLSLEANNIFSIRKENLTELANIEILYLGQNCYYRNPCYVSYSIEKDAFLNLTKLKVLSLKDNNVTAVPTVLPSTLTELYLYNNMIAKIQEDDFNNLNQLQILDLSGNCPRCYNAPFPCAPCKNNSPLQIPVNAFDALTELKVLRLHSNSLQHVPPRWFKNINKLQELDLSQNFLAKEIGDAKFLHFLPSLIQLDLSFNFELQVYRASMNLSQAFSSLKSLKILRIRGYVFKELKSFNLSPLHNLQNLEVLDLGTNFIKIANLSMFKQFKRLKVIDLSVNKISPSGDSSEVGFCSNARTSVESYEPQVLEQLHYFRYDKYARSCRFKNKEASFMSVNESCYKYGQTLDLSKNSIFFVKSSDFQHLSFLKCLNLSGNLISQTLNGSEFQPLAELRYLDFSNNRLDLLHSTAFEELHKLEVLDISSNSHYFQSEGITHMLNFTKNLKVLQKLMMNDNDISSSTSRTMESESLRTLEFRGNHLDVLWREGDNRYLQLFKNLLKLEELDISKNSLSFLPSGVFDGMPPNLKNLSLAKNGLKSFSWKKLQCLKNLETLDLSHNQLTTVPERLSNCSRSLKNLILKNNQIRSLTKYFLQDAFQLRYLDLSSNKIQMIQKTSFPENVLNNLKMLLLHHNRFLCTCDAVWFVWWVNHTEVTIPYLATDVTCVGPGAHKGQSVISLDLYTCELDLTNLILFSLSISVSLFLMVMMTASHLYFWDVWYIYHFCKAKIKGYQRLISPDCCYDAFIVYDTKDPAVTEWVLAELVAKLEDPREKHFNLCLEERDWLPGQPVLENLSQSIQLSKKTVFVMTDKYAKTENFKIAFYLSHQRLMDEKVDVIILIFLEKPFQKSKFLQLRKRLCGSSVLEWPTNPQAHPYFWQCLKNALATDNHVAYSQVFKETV
Experimental: HEK-Blue™hTLR7 cells (purchased from InvivoGen) in a logarithmic growth phase were taken, with a growth medium (Gibco, C11995500BT, Invivo Gen, ant-nr) discarded. The cells were gently rinsed twice by an appropriate amount of 37° C. PBS (Hyclone, SH30256.01), a rinsed PBS was discarded. Thereafter, the cells were added with 2-5 mL of 37° C. PBS, incubated for 1 to 2 minutes, and then scraped by a cell scraper and gently pipetted to be dispersed into a single cell suspension. A hemocytometer was adopted to count the cells and a cell concentration was calculated. After that, a HEK-Blue™ Detection solution (purchased from Invivo Gen) was adopted to adjust the cell concentration of the cell suspension to 2.5×10^4/180 μL per well for cell plating on a 96-well cell culture plate. The HEK-Blue™hTLR7 cells were stimulated according to the designed series of GY compound or drug concentrations (0.01 μM, 0.1 μM, 1 μM, 5 μM, 15 μM, and 30 μM), with 3 replicate wells for each concentration, and were incubated at 37° C., 5% carbon dioxide for 6-16 hrs. After the incubation, the absorbance value was read at 650 nm with a full-wavelength microplate reader (BioTek-Epoch), as listed in Table 2.
Relative induction=(average OD value of experimental group−average OD value of negative control group)/average OD value of negative control group.
Specific details for the above method may be referred to https: • //www.invivogen.com/hek-blue-htlr7; https://www.invivogen.com/sites/default/files/invivogen/products/files/hek_blue_htlr7_tds.pdf.

[1] = test system: human leukemia HL-60 cells; experiment: CCK8 growth inhibition, HL60; details: Homo sapiens, HL-60, CCK8 method; read-out: IC50 of inhibitory activity on tumor cell growth, HL60
[2] = test system: human lymphoma Daudi B cells; experiment: CCK8 growth inhibition, Daudi B; details: CCK8 method; read-out: IC50 of inhibitory activity on tumor cell growth, Daudi B
[3] = test system: human lymphoma Raji cells; experiment: CCK8 growth inhibition, Raji; details: CCK8 method, read-out: IC50 of inhibitory activity on tumor cell growth, Raji
[4] = test system: murine spleen lymphocytes; experiment: Cytokine stimulation of murine spleen lymphocytes, ELISA; details: for EC50: Lymphocyte
Experimental: The stimulating effect of a series of GY compounds or drugs on murine spleen lymphocytes was detected by ELISA.
6-week-old Balb/c mice were sacrificed by cervical dislocation, spleens were taken under aseptic conditions. A 1 mL sterile syringe and a 200 mesh cell strainer were adopted to quickly grind and disperse the spleen into individual cells in 4 mL of a murine lymphocyte separation solution (Dakko's, 7211011). A resulting cell homogenate was transferred to a 15 mL centrifuge tube, then 1 mL of a RPMI 1640 medium (Hyclone, SH30809.01) was slowly added. Spleen lymphocytes were separated by a density gradient centrifugation method (800×g, 30 min), washed, red blood cells therein were lysed, such that a dispersed spleen lymphocyte suspension was obtained. Cells were counted by a hemocytometer, to calculate the cell concentration. A RPMI 1640 complete medium was adopted to adjust the cell suspension to a concentration of 1×10^6/ml/well, and the cells were then plated on a 24-well cell culture plate (Corning, 3524).
Murine spleen lymphocytes were stimulated according to the gradient concentrations of the series of GY compounds or drugs, and incubated in a 37° C., 5% carbon dioxide incubator for 24 hrs.
• (1) Coating: a Capture antibody (primary antibody, purchased from Invitrogen) was diluted with a 1×Coating Buffer (coating buffer, purchased from Invitrogen) to a recommended concentration, and 100 μL of a resulting diluted solution was added to each well of a 96-well microtiter plate, the plate was sealed with a sealing film at 4° C. overnight. • (2) Washing: a liquid in each well was discarded, then 300 μL of a PBST working solution was added to each well and kept for 1 min, thereafter, the liquid therein was discarded. The washing process was repeated 3 times. • (3) Blocking: 200 μL of a blocking solution was added to each well. The plate was sealed with a sealing film, and placed on a shaker and incubated at room temperature for 1 hr, then washed and patted to be dry. • (4) Sample incubation: a sample was collected and centrifuged to collect a supernatant. Standards, samples, negative controls, and blank controls were provided in the 96-well microtiter plate, and each concentration or sample were provided with 2 replicates. 100 μL of a standard or sample was added to each well, thereafter, the plate was sealed with a sealing film, incubated on a shaker at room temperature for 1 hr or overnight at 4° C., then washed and pated to be dry. • (5) Secondary antibody incubation: the detection antibody (secondary antibody, purchased from Invitrogen) was diluted to a recommended concentration with a dilution buffer, 100 μL of a secondary antibody was added to each well. After being sealed with a sealing film, the plate was incubated on a shaker at room temperature for 1 hr, then washed and patted to be dry. • (6) Avidin-HRP incubation: Avidin-HRP (horseradish peroxidase marker, purchased from Invitrogen) was diluted to the recommended concentration with a dilution buffer, 100 μL of Avidin-HRP was added to each well. After being sealed with a sealing film, the plate was placed on a shaker and incubated at room temperature for 30 mins, washed 5-7 times by the process of step 2), and patted to be dry. • (7) TMB color development: 100 μL of a TMB color development solution (purchased from Invitrogen) was added to each well, for carrying out reaction for 15 mins at room temperature in the dark. • (8) Stopping reaction: 50 μL of 1M H2SO4 solution was added to each well. • (9) Reading an absorbance value by a microplate reader: the OD value at 450 nm wavelength was read. A standard curve and a parameter nonlinear regression equation were drawn, and a sample concentration was calculated according to the obtained formula.

[5] = mouse immune cells (spleen lymphocytes), 24 hrs, ELISA, read-out: IL-6 EC50 of cytokine stimulating activity
[6] = mouse immune cells (spleen lymphocytes), 24 hrs, ELISA, read-out: TNF-alpha EC50 of cytokine stimulating activity
[7] = mouse immune cells (spleen lymphocytes), 24 hrs, ELISA, read-out: IFN-gamma EC50 of cytokine stimulating activity

Row | SMILES | EC50 (TLR7; read-out: TLR7(EC50/μM)) [µM] | EC50 [4, 5] [nM] | EC50 [4, 6] [nM] | EC50 [4, 7] [nM] | other results
1 | CCCCOc1nc(N)c2nc(O)n(Cc3cn(CCCCCCCCCCCCCCC(=O)O)nn3)c2n1 [GY145] | 0.29 | – | – | – | –
2 | CCCCOc1nc(N)c2nc(O)n(Cc3cn(CCOCCOCCOCCNC(=O)c4cc(/N=N/c5ccc(S(=O)(=O)Nc6ccccn6)cc5)ccc4O)nn3)c2n1 [GY113] | 1.87 | – | – | – | –
3 | CCCCOc1nc(N)c2nc(O)n(Cc3cn(CCOCCOCCOCCNC(=S)N4CCC(C5CCNc6c(C(N)=O)c(-c7ccc(Oc8ccccc8)cc7)nn65)CC4)nn3)c2n1 (single isomer, unassigned) [GY135] | 9.07 | – | – | – | IC50 [1]: 13100 nM; IC50 [2]: 14600 nM; IC50 [3]: 7600 nM
4 | CCCCOc1nc(N)c2nc(O)n(Cc3cn(CCOCCOCCOCCN=C=S)nn3)c2n1 [GY106] | – | – | – | – | EC50 (TLR7; TLR7(EC50/μM)): 0.08 µM; EC50 ([4]; Mus musculus, 24 h, read-out: IFN-gamma EC50 of cytokine stimulating activity): 2830 nM; EC50 ([4]; Mus musculus, 24 h, read-out: IL-6 EC50 of cytokine stimulating activity): < 1 nM; EC50 ([4]; Mus musculus, 24 h, read-out: TNF-alpha EC50 of cytokine stimulating activity): < 1 nM
5 | CC(C)Cn1cnc2c(N)nc3ccccc3c21 [Imiquimod, reference compound] | – | 8300 | 8350 | – | IFN-gamma EC50 of cytokine stimulating activity ([4]; mouse immune cells (spleen lymphocytes), 24 hrs, ELISA): No fit
6 | CCCCOc1nc(N)c2nc(O)n(Cc3cn(CCOCCOCCOCCNC(=S)NNCCc4ccccc4)nn3)c2n1 [GY164] | – | 5930 | 1 | 10 | –
7 | C=C(CC(=O)NCCOCCOCCOCCn1cc(Cn2c(O)nc3c(N)nc(OCCCC)nc32)nn1)C(=O)O [GY109] | 0.65 | 653 | 153 | 983 | –
8 | CCCCOc1nc(N)c2nc(O)n(Cc3cn(CCOCCOCCOc4c(OC)cc(/C=C/C(=O)N5CCC=CC5=O)cc4OC)nn3)c2n1 [GY117] | 0.22 | – | – | – | IC50 [1]: 19000 nM
9 | CCCCOc1nc(N)c2nc(O)n(Cc3cn(CCOCCOCCOCCNC(=O)CCC(=O)Nc4cccc5c4CN(C4CCC(=O)NC4=O)C5=O)nn3)c2n1 (stereo not drawn) [GY110] | 3.17 | – | – | – | –
10 | CCCCOc1nc(N)c2nc(O)n(Cc3cn(CCOCCOCCOCCNC(=O)c4cc5c(Oc6ccc(NC(=O)NC7CC7)c(Cl)c6)ccnc5cc4OC)nn3)c2n1 [GY114] | 1.98 | – | – | – | –
11 | CCCCOc1nc(N)c2nc(O)n(Cc3cn(CCOCCOCCOCCNC(=S)NC(CCC(=O)NC(CS)C(=O)NCC(=O)O)C(=O)O)nn3)c2n1 (stereo not drawn) [GY126] | 0.92 | – | – | – | –
12 | CCCCOc1nc(N)c2nc(O)n(Cc3cn(CCOCCOCCOCCNC(=S)N4CCC(C5CCNc6c(C(N)=O)c(-c7ccc(Oc8ccccc8)cc7)nn65)CC4)nn3)c2n1 (single isomer, unassigned) [GY134] | 1.99 | – | – | – | IC50 [2]: 6990 nM; IC50 ([3]; Homo sapiens, Raji): 5120 nM
13 | C#CCn1c(O)nc2c(N)nc(OCCCC)nc21 [GY100] | 2.25 | < 1 | < 1 | 104 | TLR7 agonist activity (in words) (TLR7): highly active TLR7 agonist
14 | CCCCOc1nc(N)c2nc(O)n(Cc3cn(CCOCCOCCOCCN)nn3)c2n1 [GY102] | 0.79 | 637 | 1440 | 1070 | –
15 | CCOCc1nc2c(N)nc3ccccc3c2n1CC(C)(C)O [Compound R848, Resiquimod, reference compound] | – | < 1 | < 1 | 56 | –
16 | CCCCOc1nc(N)c2nc(O)n(Cc3cn(CCOCCOCCOCC(=O)O)nn3)c2n1 [GY101] | 0.003 | 1050 | 7 | 122 | –
17 | CCCCOc1nc(N)c2nc(O)n(Cc3cn(CCCCCCCCCCCCP(=O)(O)O)nn3)c2n1 [GY103] | 0.86 | 1510 | 2620 | 3340 | –
18 | CCCCOc1nc(N)c2nc(O)n(Cc3cn(CCOCCOCCOCC(=O)NO)nn3)c2n1 [GY163] | – | 1100 | 58 | 7860 | –
